Experimental data reported in ChEMBL document CHEMBL5321285 (J Med Chem, 2023).

The compounds below were run against Sigma non-opioid intracellular receptor 1 (Cavia porcellus, UniProt Q60492).
Sequence of Sigma non-opioid intracellular receptor 1 (Cavia porcellus, UniProt Q60492) (Q60492 whole entry): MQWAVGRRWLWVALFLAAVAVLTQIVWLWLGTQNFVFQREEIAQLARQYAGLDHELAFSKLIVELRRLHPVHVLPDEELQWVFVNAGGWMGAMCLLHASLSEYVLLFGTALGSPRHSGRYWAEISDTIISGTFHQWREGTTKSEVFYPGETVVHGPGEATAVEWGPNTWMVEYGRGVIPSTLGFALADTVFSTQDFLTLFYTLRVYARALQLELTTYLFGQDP
Description: Displacement of [3H](+)-pentazocine from sigma 1 receptor in guinea pig brain membranes assessed as inhibition constant incubated for 120 mins in presence of haloperidol

Compound | Ki [nM]
CN1CC[C@]2(c3cccc(O)c3)CC(=O)/C(=C/c3ccc(Cl)c(Cl)c3)[C@H]1C2 | 7440

What follows are compounds tested against T1, Sigma intracellular receptor 2 (Rattus norvegicus, UniProt Q5U3Y7) (assay: Displacement of [3H]di-o-tolylguanidine from rat liver membrane sigma 2 receptor assessed as inhibition constant in presence of haloperidol).
T1 sequence (Q5U3Y7 whole entry): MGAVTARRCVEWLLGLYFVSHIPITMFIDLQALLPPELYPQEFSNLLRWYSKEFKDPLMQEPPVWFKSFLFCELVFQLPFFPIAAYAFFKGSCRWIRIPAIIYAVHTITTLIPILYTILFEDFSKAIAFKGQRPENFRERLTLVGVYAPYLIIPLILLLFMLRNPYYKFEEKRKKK
Assay type: cell membranes

Compound | Ki [nM]
CN1CC[C@]2(c3cccc(O)c3)CC(=O)/C(=C/c3ccc(Cl)c(Cl)c3)[C@H]1C2 | 13.4

Organism: Homo sapiens
Assay: Selectivity ratio of Ki for displacement of [3H]-(+)-pentazocine from human sigma1 receptor transfected in HEK293 cell membranes assessed as inhibition constant to Ki for displacement of [3H]-1,3-di-O-tolylguanidine from human sigma 2 receptor/TMEM97 transfected in sigma 1 receptor knockout HEK293 cell membranes assessed as inhibition constant

Compound | Ratio Ki
CCc1ncc(-c2ccncc2)c(C2CCN(CC(=O)N3CCOCC3)CC2)n1 | 1.1
CCc1ncc(-c2ccccn2)c(C2CCN(CC(=O)N3CCOCC3)CC2)n1 | > 3
Cc1cc(-c2cncnc2C2CCN(CC(=O)N3CCOCC3)CC2)on1 | > 2
CCc1ncc(-c2nccn2C)c(C2CCN(CC(=O)N3CCOCC3)CC2)n1 | > 10

These compounds were tested against T2, Sigma intracellular receptor 2 (Homo sapiens, UniProt Q5BJF2) (assay: Binding affinity to sigma2 receptor (unknown origin) assessed as inhibition constant).
T2 sequence (Q5BJF2 whole entry): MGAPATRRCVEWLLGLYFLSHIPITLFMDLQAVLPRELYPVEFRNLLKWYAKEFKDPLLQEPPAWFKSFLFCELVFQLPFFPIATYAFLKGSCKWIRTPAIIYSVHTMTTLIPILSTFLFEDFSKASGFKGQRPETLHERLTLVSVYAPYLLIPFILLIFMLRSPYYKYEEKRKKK

Ki [nM] | Compound
0.43 | COc1cc2c(cc1OC)CN(CCCCn1c(=O)n(C)c3ccccc31)CC2
46 | OCCCN1CCCC2CC1c1cc(-c3ccc(C(F)(F)F)cc3)ccc12 (stereo not drawn)

What follows are compounds tested against T3, Sigma non-opioid intracellular receptor 1 (Homo sapiens, UniProt Q99720) (assay: Binding affinity to sigma1 receptor (unknown origin) assessed as inhibition constant).
T3 sequence (Q99720 whole entry): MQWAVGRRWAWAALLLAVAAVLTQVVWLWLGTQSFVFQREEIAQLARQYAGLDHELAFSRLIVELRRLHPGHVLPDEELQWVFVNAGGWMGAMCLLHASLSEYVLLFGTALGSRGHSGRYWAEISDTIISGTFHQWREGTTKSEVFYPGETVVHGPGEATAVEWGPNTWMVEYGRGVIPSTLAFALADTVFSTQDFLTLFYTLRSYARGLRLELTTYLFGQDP

Ki [nM] | Compound
560 | COc1cc2c(cc1OC)CN(CCCCn1c(=O)n(C)c3ccccc31)CC2
1280 | OCCCN1CCCC2CC1c1cc(-c3ccc(C(F)(F)F)cc3)ccc12 (stereo not drawn)
≥ 1000 | O=C(CN1CCC(CN2Cc3ccccc3C2=O)CC1)c1ccc(F)cc1 [ROLUPERIDONE]

Each compound was assayed against T2, Sigma intracellular receptor 2 (assay: Displacement of [3H]-1,3-di-O-tolylguanidine from human sigma 2 receptor/TMEM97 transfected in sigma 1 receptor knockout HEK293 cell membranes assessed as inhibition constant measured after 120 mins by microbeta scintillation counting analysis).
Set-up: species or system Cell membrane

Compound | Ki [nM]
Cc1cc(-c2cnc(C)nc2C2CCN(C(=O)CN3CCOCC3)CC2)on1 | > 1000
CCc1ncc(-c2cc(C)no2)c(C2CCN(CC(=O)N3CCOCC3)C2)n1 (stereo not drawn) | > 1000
CCn1ncc(-c2cc(C)no2)c1C1CCN(CC(=O)N2CCOCC2)CC1 | > 1000

Now from value to compound:

Ki [nM] | Compound
951 | CCc1ncc(-c2nccn2C)c(C2CCN(CC(=O)N3CCOCC3)CC2)n1
788 | CCc1ncc(-c2cc(C)no2)c([C@H]2CCCN(CC(=O)N3CCOCC3)C2)n1
727 | CCc1ncc(-c2ccncc2)c(C2CCN(CC(=O)N3CCOCC3)CC2)n1
496 | CCn1cc(-c2cc(C)no2)c(C2CCN(CC(=O)N3CCOCC3)CC2)n1
457 | Cc1cc(-c2cncnc2C2CCN(CC(=O)N3CCOCC3)CC2)on1
319 | CCc1ncc(-c2ccccn2)c(C2CCN(CC(=O)N3CCOCC3)CC2)n1
164 | CCc1ncc(-c2cc(C)no2)c([C@@H]2CCCN(CC(=O)N3CCOCC3)C2)n1
131 | CCc1ncc(-c2cc(C)no2)c(C2CCCN(CC(=O)N3CCOCC3)CC2)n1 (stereo not drawn)

The compounds below were run against T3, Sigma non-opioid intracellular receptor 1 (assay: Displacement of [3H]-(+)-pentazocine from human sigma1 receptor transfected in HEK293 cell membranes assessed as inhibition constant incubated for 120 mins in presence of haloperidol by microbeta scintillation counter analysis).
Set-up: species or system Cell membrane

Compound | Ki [nM]
Cc1cc(-c2cnc(C)nc2C2CCN(C(=O)CN3CCOCC3)CC2)on1 | > 1000
CCc1ncc(-c2cc(C)no2)c(C2CCN(CC(=O)N3CCOCC3)C2)n1 (stereo not drawn) | > 1000
CCn1ncc(-c2cc(C)no2)c1C1CCN(CC(=O)N2CCOCC2)CC1 | > 1000

More lines, now with the values ahead:

Ki [nM] | Compound
> 10000 | CCc1ncc(-c2nccn2C)c(C2CCN(CC(=O)N3CCOCC3)CC2)n1
> 10000 | CCc1ncc(-c2cc(C)no2)c([C@H]2CCCN(CC(=O)N3CCOCC3)C2)n1
807 | CCc1ncc(-c2ccncc2)c(C2CCN(CC(=O)N3CCOCC3)CC2)n1
> 1000 | CCn1cc(-c2cc(C)no2)c(C2CCN(CC(=O)N3CCOCC3)CC2)n1
> 1000 | Cc1cc(-c2cncnc2C2CCN(CC(=O)N3CCOCC3)CC2)on1
> 1000 | CCc1ncc(-c2ccccn2)c(C2CCN(CC(=O)N3CCOCC3)CC2)n1
> 10000 | CCc1ncc(-c2cc(C)no2)c([C@@H]2CCCN(CC(=O)N3CCOCC3)C2)n1
237 | CCc1ncc(-c2cc(C)no2)c(C2CCCN(CC(=O)N3CCOCC3)CC2)n1 (stereo not drawn)
